What was measured:
Assay in all cases: relative viability (nuclei count vs DMSO), 5 days (fraction); higher = more cells survive
[1] = test system: PC-14
Outline: (§1)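 Relative viability is defined as nuclei in treated wells over nuclei in vehicle wells. Duplicate plates were run and medians reported. Lung cancer cell lines in 1536-well plates were dosed by pin tool one day after seeding, with one drug or with a fixed anchor-drug dose plus five library-drug doses (not always all listed) in √10 steps, and nuclei were counted after 5 days.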

[2] = test system: LK-2
Outline: as §1

[3] = test system: NCI-H661
Outline: as §1

[4] = test system: NCI-H1993
Outline: as §1

[5] = test system: ABC-1
Outline: as §1

[6] = test system: A-427
Outline: as §1

[7] = test system: NCI-H2405
Outline: as §1

[8] = test system: NCI-H23
Outline: as §1

[9] = test system: NCI-H1755
Outline: as §1

[10] = test system: NCI-H1793
Outline: as §1

[11] = test system: LOU-NH91
Outline: as §1

[12] = test system: LU99A
Outline: as §1

Work on `C=C1C(=O)O[C@@H](CCCCCCCC)[C@@H]1C(=O)O` [C-75] + O=C(CCCCCCC(=O)Nc1ccccc1)NO [Vorinostat] (partner 1 µM) yielded a relative viability ([1]; first compound 0.08 µM) of 0.721, a relative viability ([1]; first compound 0.253 µM) of 0.741 and a relative viability ([1]; first compound 0.8 µM) of 0.63. It also gave a relative viability ([1]; first compound 2.53 µM) of 0.61, a relative viability ([1]; first compound 8 µM) of 0.717 and a relative viability ([2]; first compound 0.08 µM) of 0.387. It also gave a relative viability ([2]; first compound 0.253 µM) of 0.315, a relative viability ([2]; first compound 0.8 µM) of 0.319 and a relative viability ([2]; first compound 2.53 µM) of 0.286. It also gave a relative viability ([2]; first compound 8 µM) of 0.324, a relative viability ([3]; first compound 0.08 µM) of 0.762 and a relative viability ([3]; first compound 0.253 µM) of 0.828. It also gave a relative viability ([3]; first compound 0.8 µM) of 0.741, a relative viability ([3]; first compound 2.53 µM) of 0.657 and a relative viability ([3]; first compound 8 µM) of 0.774. The relative viability ([4]; first compound 0.08 µM) was 0.719, the relative viability ([4]; first compound 0.253 µM) was 0.842 and the relative viability ([4]; first compound 0.8 µM) was 0.616. The relative viability ([4]; first compound 2.53 µM) was 0.715, the relative viability ([4]; first compound 8 µM) was 0.657 and the relative viability ([5]; first compound 0.08 µM) was 1.32. The relative viability ([5]; first compound 0.253 µM) was 1.18, the relative viability ([5]; first compound 0.8 µM) was 0.547 and the relative viability ([5]; first compound 2.53 µM) was 0.805. The relative viability ([5]; first compound 8 µM) was 0.649, the relative viability ([6]; first compound 0.08 µM) was 0.851 and the relative viability ([6]; first compound 0.253 µM) was 0.822. It also gave a relative viability ([6]; first compound 0.8 µM) of 0.615, a relative viability ([6]; first compound 2.53 µM) of 0.755 and a relative viability ([6]; first compound 8 µM) of 0.852. For the same molecule, the relative viability ([7]; first compound 0.08 µM) was 1, the relative viability ([7]; first compound 0.253 µM) was 0.831 and the relative viability ([7]; first compound 0.8 µM) was 0.313. It also gave a relative viability ([7]; first compound 2.53 µM) of 0.708, a relative viability ([7]; first compound 8 µM) of 0.891 and a relative viability ([8]; first compound 0.08 µM) of 0.605. For the same molecule, the relative viability ([8]; first compound 0.253 µM) was 0.642, the relative viability ([8]; first compound 0.8 µM) was 0.497 and the relative viability ([8]; first compound 2.53 µM) was 0.366. For the same molecule, the relative viability ([8]; first compound 8 µM) was 0.407, the relative viability ([9]; first compound 0.08 µM) was 0.732 and the relative viability ([9]; first compound 0.253 µM) was 0.868. For the same molecule, the relative viability ([9]; first compound 0.8 µM) was 0.692, the relative viability ([9]; first compound 2.53 µM) was 0.774 and the relative viability ([9]; first compound 8 µM) was 0.732. The relative viability ([10]; first compound 0.08 µM) was 0.674, the relative viability ([10]; first compound 0.253 µM) was 1.01 and the relative viability ([10]; first compound 2.53 µM) was 0.425. For the same molecule, the relative viability ([10]; first compound 8 µM) was 0.751, the relative viability ([11]; first compound 0.08 µM) was 0.939 and the relative viability ([11]; first compound 0.253 µM) was 0.939. It also gave a relative viability ([11]; first compound 0.8 µM) of 0.828, a relative viability ([11]; first compound 8 µM) of 0.898 and a relative viability ([12]; first compound 0.08 µM) of 0.476. For the same molecule, the relative viability ([12]; first compound 0.253 µM) was 0.549.
